Each structure is given as a SMILES string. Activity calls are given as the source filed them. Where only a bound is given, the exact number is not on record here.

Test [1] has as its target T1, Nuclear receptor subfamily 0 group B member 1 (Homo sapiens, UniProt P51843).
T1 sequence (P51843 whole entry): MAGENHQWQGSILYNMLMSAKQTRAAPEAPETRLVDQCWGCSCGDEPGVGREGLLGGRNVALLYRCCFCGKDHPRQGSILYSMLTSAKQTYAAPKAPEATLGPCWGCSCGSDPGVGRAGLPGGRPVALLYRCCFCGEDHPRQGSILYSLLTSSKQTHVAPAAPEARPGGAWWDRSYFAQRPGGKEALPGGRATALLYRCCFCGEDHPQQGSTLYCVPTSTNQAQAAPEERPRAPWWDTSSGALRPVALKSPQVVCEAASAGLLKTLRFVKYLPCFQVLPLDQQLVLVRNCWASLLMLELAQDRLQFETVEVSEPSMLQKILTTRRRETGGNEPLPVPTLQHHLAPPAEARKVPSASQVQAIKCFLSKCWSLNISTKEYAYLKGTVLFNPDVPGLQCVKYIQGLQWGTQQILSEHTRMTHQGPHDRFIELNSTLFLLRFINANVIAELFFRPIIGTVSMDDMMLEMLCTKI
Nature of the test: Luminescence-based cell-based high throughput dose response assay for inhibitors of the orphan nuclear receptor subfamily 0, group B, member 1 (DAX1; NR0B1). [Related pubchem assays (depositor defined):AID504766, AID504790]. It counts as functional.

The test system of test [2] is HEK293. Nature of the test: cells. Conditions: Homo sapiens. It counts as functional, cell-based.
For test [3], the target named is T2, Corticotropin-releasing factor receptor 2/Corticotropin-releasing factor-binding protein (Homo sapiens, UniProt P24387+Q13324).
T2 sequence (Q13324 whole entry): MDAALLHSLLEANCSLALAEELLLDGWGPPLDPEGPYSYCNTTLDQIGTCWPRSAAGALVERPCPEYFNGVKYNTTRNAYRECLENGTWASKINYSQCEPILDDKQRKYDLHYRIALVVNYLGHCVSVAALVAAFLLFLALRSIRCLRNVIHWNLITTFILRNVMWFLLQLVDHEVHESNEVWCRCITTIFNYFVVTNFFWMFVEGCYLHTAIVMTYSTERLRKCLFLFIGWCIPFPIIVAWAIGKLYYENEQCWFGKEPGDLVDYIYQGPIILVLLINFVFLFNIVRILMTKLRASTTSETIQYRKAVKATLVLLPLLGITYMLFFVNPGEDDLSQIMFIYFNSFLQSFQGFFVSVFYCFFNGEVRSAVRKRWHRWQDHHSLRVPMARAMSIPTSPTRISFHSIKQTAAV
T2 sequence (P24387 whole entry): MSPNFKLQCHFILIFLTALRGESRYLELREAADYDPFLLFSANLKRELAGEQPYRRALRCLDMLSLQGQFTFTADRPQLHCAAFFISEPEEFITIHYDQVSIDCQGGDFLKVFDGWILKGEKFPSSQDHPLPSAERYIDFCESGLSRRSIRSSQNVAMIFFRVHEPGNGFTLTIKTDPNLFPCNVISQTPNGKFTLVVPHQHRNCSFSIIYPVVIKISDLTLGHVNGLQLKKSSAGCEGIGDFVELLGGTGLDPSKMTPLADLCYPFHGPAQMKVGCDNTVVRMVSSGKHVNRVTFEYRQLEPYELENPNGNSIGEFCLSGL
Nature of the test: activators of CRF receptor 2 with binding protein – uHTS hits, confirmation (AID 602473). Conditions: read-out: EC50_Mean. It counts as functional.

The target of the next test is Beta-galactosidase (Escherichia coli, UniProt Q8VNN2). Nature of the test: PubChem AID 485352. It counts as functional.
The target in test [4] is T2, Corticotropin-releasing factor receptor 2/Corticotropin-releasing factor-binding protein. Nature of the test: Dose Response confirmation of uHTS hits for small molecule antagonists of the CRF-binding protein and CRF-R2 receptor complex. It counts as functional. The note with it: read-out: IC50_Mean.
The target in test [5] is Type-1 angiotensin II receptor (Homo sapiens, UniProt P30556). Put plainly: antagonism of angiotensin II type 1 receptor – cell-based, uHTS hits, selectivity assay for APJ receptor antagonist project, dose response (AID 463214).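 Note: antagonist potency against angiotensin II stimulated AT1 response.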 It counts as functional.
A further test deals with T3, Leucine aminopeptidase (Plasmodium falciparum 3D7, UniProt Q8IL11).
T3 sequence (Q8IL11 whole entry): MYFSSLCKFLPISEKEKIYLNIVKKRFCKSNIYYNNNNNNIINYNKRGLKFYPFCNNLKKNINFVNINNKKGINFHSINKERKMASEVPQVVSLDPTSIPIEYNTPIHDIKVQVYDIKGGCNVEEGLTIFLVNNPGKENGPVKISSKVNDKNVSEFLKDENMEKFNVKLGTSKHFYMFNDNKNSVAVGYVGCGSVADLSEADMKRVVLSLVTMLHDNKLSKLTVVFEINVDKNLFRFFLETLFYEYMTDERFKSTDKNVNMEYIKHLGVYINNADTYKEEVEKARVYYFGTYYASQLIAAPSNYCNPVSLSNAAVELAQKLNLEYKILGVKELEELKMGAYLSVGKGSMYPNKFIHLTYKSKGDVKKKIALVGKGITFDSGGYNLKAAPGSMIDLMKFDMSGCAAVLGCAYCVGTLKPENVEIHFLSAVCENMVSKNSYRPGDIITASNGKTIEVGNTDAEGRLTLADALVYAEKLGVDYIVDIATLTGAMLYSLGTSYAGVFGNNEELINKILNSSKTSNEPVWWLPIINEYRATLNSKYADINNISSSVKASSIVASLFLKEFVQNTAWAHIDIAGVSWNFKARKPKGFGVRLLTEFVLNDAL
Nature of the test: P. falciparum M17LAP inhibitors, primary screen, biochemical, fluorogenic H-Leu-NHMec substrate, 1536-well (AID 1619). It counts as functional.

The next test deals with Procathepsin L (Homo sapiens, UniProt P07711). Put plainly: CTSL1 protease inhibition – biochemical, QFRET, 1536-well, counter-screen for M1/M17 aminopeptidase inhibitor project, dose response (AID 2214).
A further test addresses T4, Aspartyl aminopeptidase (Plasmodium falciparum 3D7, UniProt Q8I2J3).
T4 sequence (Q8I2J3 whole entry): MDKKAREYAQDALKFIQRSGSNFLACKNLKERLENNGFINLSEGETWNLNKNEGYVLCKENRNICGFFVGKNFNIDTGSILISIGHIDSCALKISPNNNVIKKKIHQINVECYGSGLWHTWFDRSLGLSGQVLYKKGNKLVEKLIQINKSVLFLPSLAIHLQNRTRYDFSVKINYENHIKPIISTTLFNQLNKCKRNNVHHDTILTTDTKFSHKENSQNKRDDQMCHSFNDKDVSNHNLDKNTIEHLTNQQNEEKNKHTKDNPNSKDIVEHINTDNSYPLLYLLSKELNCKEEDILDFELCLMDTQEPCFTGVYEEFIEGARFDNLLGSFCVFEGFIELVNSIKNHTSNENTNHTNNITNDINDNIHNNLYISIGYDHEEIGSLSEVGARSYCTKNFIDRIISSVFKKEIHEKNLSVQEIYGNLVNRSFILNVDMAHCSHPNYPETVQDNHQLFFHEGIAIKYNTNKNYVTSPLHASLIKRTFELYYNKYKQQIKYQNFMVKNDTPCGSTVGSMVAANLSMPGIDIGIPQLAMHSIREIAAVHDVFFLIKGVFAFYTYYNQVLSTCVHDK
Nature of the test: Counterscreen for inhibitors of M1 and M17 aminopeptidases: QFRET-based biochemical high throughput dose response assay for inhibitors of the Plasmodium falciparum M18 Aspartyl Aminopeptidase (PFM18AAP). [Related PubChem assays: 1619 (Screening assay (M17LAP inhibitors).), 1445 (Screening assay (M1AAP inhibitors).)].

Test [6] deals with T5, Microphthalmia-associated transcription factor (Homo sapiens, UniProt O75030).
T5 sequence (O75030 whole entry): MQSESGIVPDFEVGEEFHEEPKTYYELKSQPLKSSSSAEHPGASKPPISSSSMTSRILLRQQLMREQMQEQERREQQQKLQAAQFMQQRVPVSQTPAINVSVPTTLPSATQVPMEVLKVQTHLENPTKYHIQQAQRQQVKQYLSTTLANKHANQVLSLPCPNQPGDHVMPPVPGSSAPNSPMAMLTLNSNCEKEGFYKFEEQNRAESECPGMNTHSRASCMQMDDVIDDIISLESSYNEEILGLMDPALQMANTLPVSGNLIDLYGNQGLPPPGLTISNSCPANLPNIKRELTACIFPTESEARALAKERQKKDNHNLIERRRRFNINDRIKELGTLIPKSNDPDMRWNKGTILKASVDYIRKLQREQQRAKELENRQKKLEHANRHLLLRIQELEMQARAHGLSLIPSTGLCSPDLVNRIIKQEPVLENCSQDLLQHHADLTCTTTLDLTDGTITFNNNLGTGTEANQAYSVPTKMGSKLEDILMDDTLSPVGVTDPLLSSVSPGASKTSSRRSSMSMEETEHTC
Put plainly: reducers of TRPM1 reporter luminescence, concentration series – cell-based, SK-MEL-5, cherry-picked, set 3, MITF inhibitor project, dose response (AID 493073).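 Note: SK-MEL-5 melanoma cells with luciferase driven by the MITF target TRPM1 promoter.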 It counts as functional.

Test [7] in a line: HEK-293T viability loss, compound-treated – cell-based, uHTS hits, cytotoxicity control for B/T-cell NF-kB inhibitor project, dose response (AID 489019).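 Note: IC50 reflects cytotoxicity as loss of cell viability.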 It counts as functional.
Test [8] is described as follows: off-target signal loss in HeLa-CEM21 co-culture – HeLa F-luc CTL cells, cherry-picked, counter-screen for HIV-1 Env fusion inhibitor project, dose response (AID 652040).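 Note: potency for signal decrease marking cytotoxic or nonspecific inhibition.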 It counts as functional, cell-based.
The nature of test [9]: blockers of bursicon-stimulated LGR2 cAMP reporter – cell-based, HEK293, CRE-luciferase reporter, cherry pick, set 2, dose response (AID 743343).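 Note: transfected cells were stimulated with diluted bursicon conditioned medium after compound addition.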 It counts as functional.
Test [10] in a line: blockers of HIV-1 envelope-mediated cell-cell fusion – cherry-pick, dose response (AID 652057). It counts as functional, cell-based.
The nature of test [11]: blockade of melanocortin 4 receptor signaling – cell-based, plate reader, cherry pick, counter-screen for LGR2 antagonist project, dose response (AID 743444).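 Note: transfected HEK 293 cells stimulated with alpha-MSH peptide; potency of inhibitors of the alpha-MSH evoked signal.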 It counts as functional.
The nature of test [12]: A549 cell cytotoxicity, dose response, cytotoxicity control, plate reader, cherry-pick, antagonist series (AID 743412). It counts as functional, cell-based.
The nature of test [13]: HIV-1 AD8 envelope cell-cell fusion blockers – cherry-pick, dose response (AID 652062).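 Note: luciferase signal from cell-cell fusion driven by HIV-1 clade B AD8 Env; potency is for inhibitors of fusion seen as a drop in luminescence.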 It counts as functional, cell-based.
Test [14] concerns Jurkat. Put plainly: blockers of NF-kB activation in T cells – Jurkat, luciferase reporter, luminescence, B- and T-cell, dose response (AID 489004).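 Note: NF-kB luciferase reporter Jurkat cells stimulated with PMA plus ionomycin.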 It counts as functional, cell-based. The note with it: Homo sapiens.
Test [15] relates to Jurkat. Put plainly: SAR Analysis of small molecule inhibitors of T-cell specific antigen receptor-induced NF-kB activation in a Jurkat cell line using a luminescence assay - Set 2. [Related pubchem assays (depositor defined):AID435003, AID435012, AID465]. The note with it: Homo sapiens. It counts as functional, cell-based.
In test [16] the test system is HEK293. Nature of the test: SAR Analysis of small molecule inhibitors of T-cell specific antigen receptor-induced NF-kB activation in a HEK-293T cell line using a luminescence assay - Set 2. [Related pubchem assays (depositor defined):AID435003, AID435012, AID489026]. It counts as functional, cell-based. Conditions: Homo sapiens.
Test [17] concerns HEK293. Put plainly: HEK293T cell viability loss, resazurin readout – resazurin fluorescence, cytotoxicity control for NF-kB activator project, SAR follow-up (AID 493251). It counts as functional, cell-based. Conditions: Homo sapiens.

Sequence of Type-1 angiotensin II receptor (P30556 whole entry): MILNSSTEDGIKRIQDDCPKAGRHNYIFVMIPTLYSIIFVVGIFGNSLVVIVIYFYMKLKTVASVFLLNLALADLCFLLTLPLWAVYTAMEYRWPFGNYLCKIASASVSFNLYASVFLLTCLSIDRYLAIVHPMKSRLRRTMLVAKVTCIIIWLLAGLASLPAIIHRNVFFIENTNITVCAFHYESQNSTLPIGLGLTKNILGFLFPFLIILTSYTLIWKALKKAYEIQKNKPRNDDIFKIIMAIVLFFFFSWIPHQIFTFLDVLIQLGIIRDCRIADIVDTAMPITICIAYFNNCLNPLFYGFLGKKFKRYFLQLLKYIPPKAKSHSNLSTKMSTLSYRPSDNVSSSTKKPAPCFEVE
Sequence of Beta-galactosidase (Q8VNN2 whole entry): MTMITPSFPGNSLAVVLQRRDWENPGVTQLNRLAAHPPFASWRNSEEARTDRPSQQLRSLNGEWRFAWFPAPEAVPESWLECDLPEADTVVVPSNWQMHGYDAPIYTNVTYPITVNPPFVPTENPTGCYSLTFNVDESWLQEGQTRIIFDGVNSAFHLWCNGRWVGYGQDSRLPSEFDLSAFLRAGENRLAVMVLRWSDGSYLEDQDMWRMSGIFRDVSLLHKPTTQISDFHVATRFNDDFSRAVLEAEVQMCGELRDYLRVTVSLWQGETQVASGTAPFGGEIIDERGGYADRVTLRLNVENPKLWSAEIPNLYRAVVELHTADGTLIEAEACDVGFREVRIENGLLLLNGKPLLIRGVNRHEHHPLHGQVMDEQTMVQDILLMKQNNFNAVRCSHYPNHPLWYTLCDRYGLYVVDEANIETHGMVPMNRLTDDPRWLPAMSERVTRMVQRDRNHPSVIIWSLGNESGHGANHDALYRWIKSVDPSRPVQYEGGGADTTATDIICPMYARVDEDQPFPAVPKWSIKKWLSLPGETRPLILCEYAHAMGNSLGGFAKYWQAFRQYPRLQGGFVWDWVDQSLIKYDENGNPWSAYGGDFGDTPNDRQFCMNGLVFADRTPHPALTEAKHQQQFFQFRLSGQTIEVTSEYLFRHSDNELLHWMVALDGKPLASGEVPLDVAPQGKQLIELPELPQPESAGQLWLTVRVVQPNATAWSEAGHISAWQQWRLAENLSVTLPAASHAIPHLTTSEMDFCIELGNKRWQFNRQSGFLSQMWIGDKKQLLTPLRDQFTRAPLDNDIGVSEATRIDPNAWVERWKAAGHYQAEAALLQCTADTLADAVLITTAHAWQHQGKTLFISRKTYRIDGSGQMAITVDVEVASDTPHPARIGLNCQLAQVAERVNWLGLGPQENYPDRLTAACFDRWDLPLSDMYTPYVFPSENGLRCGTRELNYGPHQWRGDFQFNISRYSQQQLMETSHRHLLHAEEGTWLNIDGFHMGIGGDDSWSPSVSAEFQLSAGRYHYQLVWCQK
Sequence of Procathepsin L (P07711 whole entry): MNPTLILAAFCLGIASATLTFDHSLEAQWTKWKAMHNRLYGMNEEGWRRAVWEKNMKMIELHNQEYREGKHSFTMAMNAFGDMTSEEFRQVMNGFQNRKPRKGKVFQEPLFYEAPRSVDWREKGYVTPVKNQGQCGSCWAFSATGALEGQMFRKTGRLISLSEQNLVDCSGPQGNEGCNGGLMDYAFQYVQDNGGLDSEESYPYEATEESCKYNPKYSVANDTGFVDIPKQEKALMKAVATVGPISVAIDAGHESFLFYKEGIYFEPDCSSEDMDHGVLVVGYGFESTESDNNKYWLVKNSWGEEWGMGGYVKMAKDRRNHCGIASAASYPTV

With `Cc1nn(-c2ccccc2)c(Cl)c1C(=O)N1CCN(C)CC1`, the IC50 (in [1]; in the test with HEK293 [2]) was > 67.5 µM (inactive) in each case.

As to `ON1C(c2ccc(Cl)cc2Cl)N(O)[C@H]2CCCC[C@H]21` (stereo partly drawn), the EC50 in test [3] was > 53 µM (inactive); at Beta-galactosidase, > 40 µM (inactive). Further, the IC50 in [4] is > 47.1 µM (inactive); in [5] it was 17.7 µM (active).

On to `CC(C(=O)OCC(=O)c1cccc([N+](=O)[O-])c1)N1C(=O)C2C3CCC(C3)C2C1=O` (stereo not drawn), for which the EC50 on Beta-galactosidase is > 40 µM (inactive). Moreover, the IC50 in test [5] is reported as 24.4 µM (not active).

For the compound `O=C(Nc1ccc(Cl)cc1)Nc1cccc(C(=O)O)c1`, the IC50 at Leucine aminopeptidase was < 1 µM (active); on Procathepsin L, > 59.6 µM (not active); at Aspartyl aminopeptidase it was > 73.5 µM (not active); in test [7] it was > 80 µM (inactive); in the test with Jurkat [14], 3.35 µM (active). Further, the AC50 is 3.79 µM (active) in test [6]; 2.95 µM (active) in test [8]; 2.93 µM (active) in test [9]; 2.22 µM (active) in test [10]; 1.88 µM (active) in test [11]; > 52 µM (inactive) in [12]. Further, the AC50 in [13] was 2.51 µM (active).

Consider `Cc1ccc(NC(=O)c2ccccc2F)c(NC(=O)c2ccccc2F)c1`, for which the IC50 (in test [1]; with HEK293 [2]) was > 67.5 µM (inactive) in each case.

For `COc1ccc(C(NC(=O)CC(C)C)c2ccc3cccnc3c2O)cc1OC` (stereo not drawn), the IC50 with Jurkat [15] was 5.48 µM (active); in the test with HEK293 [16] it was 6.6 µM (active); with HEK293 [17] it was 20.1 µM (inactive).

As to `CCC(=O)NC(c1ccc(N(C)C)cc1)c1ccc2cccnc2c1O` (stereo not drawn), the IC50 is 2.67 µM (active) in the test on Jurkat [15], 7 µM (active) in the test on HEK293 [16] and 18.4 µM (active) in the test on HEK293 [17].
